Reference: the supplement of paper PMC3770661
Counter-ions that a name gives are not always drawn. ± gives the uncertainty stated by the source.

Tested on: HepG2 (L1.3 5'UTR promoter firefly luciferase reporter)
Test: L1 promoter activity (FLuc/RLuc) relative to DMSO vehicle control (% of control); higher = stronger L1 promoter activation
Description: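 HepG2 cells in 96-well plates were cotransfected with pGL4.11-L1.3 5'UTR (firefly luciferase driven by the human L1.3 5'UTR promoter) and pGL4.74 (HSV-TK Renilla luciferase internal control), then treated with compound for 6 or 24 h. FLuc/RLuc ratio was normalised to the DMSO vehicle control (% of control); concentrations where RLuc fell below 50% of control were excluded (N.D.). Mean of at least two independent experiments in duplicate or quadruplicate.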

[1] = concentration (uM unless unit written): 5, treatment time: 6 h
[2] = concentration (uM unless unit written): 5, treatment time: 24 h
[3] = concentration (uM unless unit written): 10, treatment time: 6 h
[4] = concentration (uM unless unit written): 10, treatment time: 24 h
[5] = concentration (uM unless unit written): 20, treatment time: 6 h
[6] = concentration (uM unless unit written): 20, treatment time: 24 h
[7] = concentration (uM unless unit written): 1, treatment time: 6 h
[8] = concentration (uM unless unit written): 1, treatment time: 24 h
[9] = concentration (uM unless unit written): 500, treatment time: 6 h
[10] = concentration (uM unless unit written): 500, treatment time: 24 h
[11] = concentration (uM unless unit written): 50, treatment time: 6 h
[12] = concentration (uM unless unit written): 50, treatment time: 24 h
[13] = concentration (uM unless unit written): 100, treatment time: 6 h
[14] = concentration (uM unless unit written): 125, treatment time: 6 h
[15] = concentration (uM unless unit written): 125, treatment time: 24 h
[16] = concentration (uM unless unit written): 250, treatment time: 6 h
[17] = concentration (uM unless unit written): 250, treatment time: 24 h
[18] = concentration (uM unless unit written): 1000, treatment time: 6 h

Nc1nc(=S)c2[nH]cnc2[nH]1 [6-Thioguanine] showed an L1 promoter activity (concentration (uM unless unit written): 2.5, treatment time: 6 h) of 126 ± 16, an L1 promoter activity (concentration (uM unless unit written): 2.5, treatment time: 24 h) of 98.6 ± 12 and an L1 promoter activity [1] of 108 ± 17. For the same compound, the L1 promoter activity [2] was 102 ± 14, the L1 promoter activity [3] was 104 ± 4.2 and the L1 promoter activity [4] was 97.3 ± 11.
CC(=O)O[C@H]1C(=O)[C@@]2(C)[C@H]([C@H](OC(=O)c3ccccc3)[C@]3(O)C[C@H](OC(=O)[C@H](O)[C@@H](NC(=O)c4ccccc4)c4ccccc4)C(C)=C1C3(C)C)[C@]1(OC(C)=O)CO[C@@H]1C[C@@H]2O [Taxol] showed an L1 promoter activity [1] of 104 ± 17, an L1 promoter activity [2] of 86.9 ± 18 and an L1 promoter activity [3] of 123 ± 35. For the same compound, the L1 promoter activity [4] was 81.9 ± 11, the L1 promoter activity [5] was 96.8 ± 14 and the L1 promoter activity [6] was 76.3 ± 13.
Compound CCCCCC[C@H]1C(=O)O[C@H](C)[C@H](NC(=O)c2cccc(NC=O)c2O)C(=O)O[C@@H](C)[C@@H]1OC(=O)CC(C)C [Antimycin A] has an L1 promoter activity (concentration (uM unless unit written): 0.075, treatment time: 6 h) of 101 ± 17, an L1 promoter activity (concentration (uM unless unit written): 0.075, treatment time: 24 h) of 115 ± 21 and an L1 promoter activity [7] of 101 ± 5.7. The L1 promoter activity [8] was 109 ± 8.4.
With CN1CC=C(c2ccccc2)CC1 [1-Methyl-4-phenyl-1,2,3,6-tetrahydropyridine] the L1 promoter activity [9] was 115 ± 11 and the L1 promoter activity [10] was 121 ± 19.
Compound CN(C)CCC(c1ccc(Cl)cc1)c1ccccn1 (racemic) [(±)-Chlorpheniramine maleate salt] has an L1 promoter activity [11] of 91.1 ± 9.6, an L1 promoter activity [12] of 96.2 ± 19 and an L1 promoter activity [13] of 101 ± 9.2. The L1 promoter activity (concentration (uM unless unit written): 100, treatment time: 24 h) was 86.4 ± 8.2 and the L1 promoter activity [9] was 84 ± 3.3.
In the case of CC1=CC(=O)c2ccccc2C1=O [Menadione], the L1 promoter activity (concentration (uM unless unit written): 17.5, treatment time: 6 h) is reported as 116 ± 11.
Compound C[C@H](CCC(=O)O)C[C@H](C)C[C@H](C)C(=O)/C=C(\O)[C@H](C)C[C@H](C)C/C=C/[C@@H](C)[C@@H](O)[C@@H](C)[C@@H](O)C[C@@H]1CC[C@@](C)([C@H]2CC[C@@](C)([C@@H](C)O)O2)O1 [Ionomycin] has an L1 promoter activity [1] of 77.1 ± 5, an L1 promoter activity [2] of 79.5 ± 15 and an L1 promoter activity [3] of 60 ± 14. The L1 promoter activity [4] was 58.1 ± 11, the L1 promoter activity [5] was 60.5 ± 11 and the L1 promoter activity [6] was 36.9 ± 6.4.
For COS(C)(=O)=O [Methyl methanesulfonate], the L1 promoter activity [14] was 113 ± 11, the L1 promoter activity [15] was 90.8 ± 4.2 and the L1 promoter activity [16] was 107 ± 15. The L1 promoter activity [17] was 88.2 ± 13, the L1 promoter activity [9] was 100 ± 12 and the L1 promoter activity [10] was 83.2 ± 4.5.
For CC[C@H]1/C=C/C=C/C[C@@H](C)[C@H](O)[C@@](C)(O)C(=O)[C@@H](C)[C@H](O)[C@@H](C)C(=O)[C@@H](C)[C@H](O)[C@@H](C)/C=C/C(=O)O[C@@H]2[C@H](C)[C@H](CC1)O[C@]1(CC[C@H](C)[C@H](C[C@@H](C)O)O1)[C@H]2C [Oligomycin], the L1 promoter activity (concentration (uM unless unit written): 0.75, treatment time: 6 h) was 89.6 ± 5.8, the L1 promoter activity (concentration (uM unless unit written): 0.75, treatment time: 24 h) was 82.1 ± 19 and the L1 promoter activity (concentration (uM unless unit written): 1.5, treatment time: 6 h) was 82.5 ± 15. The L1 promoter activity (concentration (uM unless unit written): 1.5, treatment time: 24 h) was 77.2 ± 1.9.
Work on COc1ccc2c(c1)c(CC(=O)O)c(C)n2C(=O)c1ccc(Cl)cc1 [Indometacin] yielded an L1 promoter activity [16] of 99.1 ± 10, an L1 promoter activity [17] of 83 ± 11 and an L1 promoter activity [9] of 92.6 ± 13. For the same compound, the L1 promoter activity [10] was 59.3 ± 6.8 and the L1 promoter activity [18] was 67.2 ± 10.
CC(=O)Oc1ccccc1C(=O)O [Acetylsalicylic acid] showed an L1 promoter activity [7] of 103 ± 7.2, an L1 promoter activity [8] of 98.7 ± 9.5 and an L1 promoter activity (concentration (uM unless unit written): 3, treatment time: 6 h) of 115 ± 11. It also gave an L1 promoter activity (concentration (uM unless unit written): 3, treatment time: 24 h) of 88.3 ± 11, an L1 promoter activity [3] of 107 ± 3.8 and an L1 promoter activity [4] of 105 ± 9.7. It also gave an L1 promoter activity [11] of 106 ± 8.5, an L1 promoter activity [12] of 98.2 ± 29 and an L1 promoter activity [13] of 123 ± 23. For the same compound, the L1 promoter activity [16] was 112 ± 13, the L1 promoter activity [17] was 105 ± 8.4 and the L1 promoter activity [9] was 114 ± 14. For the same compound, the L1 promoter activity [10] was 86 ± 5.1, the L1 promoter activity [18] was 107 ± 12 and the L1 promoter activity (concentration (uM unless unit written): 1000, treatment time: 24 h) was 91.3 ± 6. It also gave an L1 promoter activity (concentration (uM unless unit written): 2000, treatment time: 6 h) of 95.4 ± 8, an L1 promoter activity (concentration (uM unless unit written): 2000, treatment time: 24 h) of 67.7 ± 5.9 and an L1 promoter activity (concentration (uM unless unit written): 3000, treatment time: 6 h) of 105 ± 4. The L1 promoter activity (concentration (uM unless unit written): 3000, treatment time: 24 h) was 53.3 ± 2.5, the L1 promoter activity (concentration (uM unless unit written): 5000, treatment time: 6 h) was 111 ± 15 and the L1 promoter activity (concentration (uM unless unit written): 5000, treatment time: 24 h) was 40.8 ± 1.2.
CN(Cc1cc(Br)cc(Br)c1N)C1CCCCC1 [Bromhexine hydrochloride] gave an L1 promoter activity (concentration (uM unless unit written): 62.5, treatment time: 6 h) of 108 ± 14, an L1 promoter activity (concentration (uM unless unit written): 62.5, treatment time: 24 h) of 102 ± 7.2 and an L1 promoter activity [14] of 97.8 ± 12. For the same compound, the L1 promoter activity [15] was 98.7 ± 12.
